The values that follow come from patent US20190119348A1, “PARATHYROID HORMONE RECEPTOR 1 ANTAGONIST AND INVERSE AGONIST POLYPEPTIDES AND METHODS OF THEIR USE” (The General Hospital Corporation, priority 2016, published 2019).

The target of one assay is T1, human PTHR1-T410P (Homo sapiens, UniProt Q03431, T410P).
T1 construct: expressed in transfected cells; host or cells: GTP-4 (HEK-293 stably expressing GloSensor and PTHR1-T410P)
T1 sequence (Q03431 27-593 T410P): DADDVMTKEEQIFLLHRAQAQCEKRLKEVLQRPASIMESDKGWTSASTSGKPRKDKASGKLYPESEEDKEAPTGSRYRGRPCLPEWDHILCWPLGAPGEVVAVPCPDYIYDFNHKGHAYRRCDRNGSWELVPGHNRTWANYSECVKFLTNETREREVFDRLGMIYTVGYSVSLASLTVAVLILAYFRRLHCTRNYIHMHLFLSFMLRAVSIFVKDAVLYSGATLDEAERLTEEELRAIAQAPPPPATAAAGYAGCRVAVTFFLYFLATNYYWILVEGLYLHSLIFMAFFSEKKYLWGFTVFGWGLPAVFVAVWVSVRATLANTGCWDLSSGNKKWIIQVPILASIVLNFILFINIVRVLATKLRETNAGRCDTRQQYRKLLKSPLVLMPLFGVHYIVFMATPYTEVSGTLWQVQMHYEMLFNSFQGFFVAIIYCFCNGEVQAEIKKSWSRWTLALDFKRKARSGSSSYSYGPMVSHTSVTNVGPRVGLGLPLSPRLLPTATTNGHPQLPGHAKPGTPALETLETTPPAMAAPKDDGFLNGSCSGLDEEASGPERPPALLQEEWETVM
The experiment in a line: Inverse agonism on basal cAMP signaling in GTP-4 cells. The conditions noted are these: GTP-4 cells (HEK293/GloSensor). Format: cell-based. On the procedure:
cAMP signaling was assessed in the HEK293-derived or SaOS2-derived cell lines stably expressing the luciferase-based GloSensor™ cAMP reporter (Hattersley et al., Paper presented at: Novel Signaling Mechanisms and Bone Cell Biology 2014; Binkowski et al., Methods in molecular biology. 756:263-271). HEK-293 cells were further transfected to stably express the hPTHR1, hPTHR1-H223R, or hPTHR1-T410P. The cells were seeded into 96-well white plates and were assayed 24 to 48 hours post-confluency. Assays were performed at room temperature in CO2-independent culture media (Life Technologies, Corp., Carlsbad, Calif.) containing 0.1% BSA (CIDB). The cells were pre-loaded with luciferin (0.5 mM in CIDB) for 15 minutes, then PTH peptides were added at varying concentrations. cAMP-dependent luminescence was measured at two-minute intervals using a PerkinElmer Envision plate reader. The time at which maximum luminescence (cps) observed with agonist alone, typically at 10-20 minutes after agonist addition, was used to obtain data from wells containing antagonist with or without agonist, to thus generate antagonist ligand dose-response curves. The resulting cps values were then plotted against ligand concentration using GraphPad Prism 7.0 software and a four-parameter logistics curve fitting equation, which yielded parameters of inhibitory potency (pIC50).
These experiments were performed in HEK-293 cells stably transfected to express the GloSensor™ cAMP reporter along with a constitutively active mutant human PTHR1. The HEK-293 cells stably expressing GloSensor™ cAMP reporter along with a constitutively active mutant human PTHR1-H223R are GHR-10 cells. The HEK-293 cells stably expressing GloSensor™ cAMP reporter along with a constitutively active mutant human PTHR1-T410P are GTP-4 cells. […] Effects on basal cAMP signaling over time were assessed during periods of direct ligand addition (FIGS. 15A-15F). The measurements were performed by recording GloSensor™ luminescence as counts per second (cps) using a PerkinElmer Envision plate reader. […]

The next assay has as its target T2, PTHR1 (hPTHR1) (Homo sapiens, UniProt Q03431).
T2 construct: expressed in transfected cells; host or cells: GP-2.3 (HEK-293 stably transfected with hPTHR1 and GloSensor)
T2 sequence (Q03431 27-593): T1 sequence (Q03431 27-593 T410P) with P384T
Nature of the assay: Radioligand competition binding in GP-2.3 cells. As to conditions: for IC50: means of four experiments. As to the method: Intact cell binding reactions were performed in 96-well plates, and, following incubation, the cells were lysed with 1N NaOH, and the lysate was counted for gamma radiation. For membrane dissociation assays, reactions were assembled in 15 cc tubes, and, at times following membrane addition (t=0), aliquots were withdrawn and filtered through a well of a vacuum filtration 96-well plate, rinsed, and, after washing, the filters were removed and counted for gamma irradiation. […] Curves were fit to the data using a four-parameter sigmoidal dose-response equation.
Pharmacological properties of the ligands were assessed in cells expressing the PTHR1 and the GloSensor™ cAMP reporter. The assays used GP-2.3 cells, derived from HEK293 cells by stable transfection with the hPTHR1 and GloSensor™, as well as SGS-72 cells, which are derived from the human osteosarcoma cell line, Saos-2, in which is endogenously expressed the hPTHR1, by stable transfection with GloSensor™. Binding of representative polypeptides to the PTHR1 was assessed in GP-2.3 cells by radioligand competition methods (FIGS. 1A and 1B, Table 3).
The assays were performed in GP-2.3 cells with the two tracer ^125I-radioligands shown; values are half-maximal inhibitory concentration (pIC50) and corresponding nanomolar value (below) derived from curve fitting ligand dose-response data. Data are means of four experiments.

Changes are numbered by the printed parent chain. Like-named read-outs stand apart in the source and are kept apart here. Where a SMILES comes first, the peptide text is derived from it. [ ]: non-standard residue; d: D form. Nle = CCCC[C@H](N)C(=O)O

For `CC[C@H](C)[C@H](N)C(=O)N[C@@H](CCC(N)=O)C(=O)N[C@@H](CC(C)C)C(=O)N[C@@H](CCSC)C(=O)N[C@@H](Cc1c[nH]cn1)C(=O)N[C@@H](CCC(N)=O)C(=O)N[C@@H](CCCNC(=N)N)C(=O)N[C@H](Cc1c[nH]c2ccccc12)C(=O)N[C@@H](CCCCN)C(=O)N[C@@H](Cc1c[nH]c2ccccc12)C(=O)N[C@H](C(=O)N[C@@H](CCC(N)=O)C(=O)N[C@@H](CC(=O)O)C(=O)N[C@@H](C)C(=O)N[C@@H](CCCNC(=N)N)C(=O)N[C@@H](CCCNC(=N)N)C(=O)N[C@@H](CCCNC(=N)N)C(=O)N[C@@H](C)C(=O)N[C@@H](Cc1c[nH]c2ccccc12)C(=O)N[C@@H](CC(C)C)C(=O)N[C@@H](Cc1c[nH]cn1)C(=O)N[C@@H](CCCCN)C(=O)N[C@@H](CC(C)C)C(=O)N[C@H](C(=O)N[C@@H](C)C(=O)N[C@@H](CCC(=O)O)C(=O)N[C@H](C(=O)N[C@@H](Cc1c[nH]cn1)C(=O)N[C@H](C(=O)N[C@@H](C)C(=O)N[C@@H](CCC(=O)O)C(=O)N[C@H](C(N)=O)[C@@H](C)CC)[C@@H](C)O)[C@@H](C)CC)[C@@H](C)CC)[C@@H](C)CC` [compound 1949, dW12, W23-LA-PTH(5-36)] (H-IQLMHQR[dW]KWIQDARRRAWLHKLIAEIHTAEI-NH2; N-terminus assumed), at human PTHR1-T410P, the “inverse agonist properties on constitutively active PTHR1-T410P (basal cAMP)” value (“inverse agonist properties” below) was “exhibited inverse agonist properties”. On PTHR1 (hPTHR1) (radioligand competition), the “apparent PTHR1 affinity compared with dTrp^12-PTH(7-34)-1894” value was “at least as strong”. In addition, the IC50 amounted to 22.3 nM at PTHR1 (hPTHR1) (tracer ^125I-PTH(1-34), read-out: half-maximal inhibitory concentration, corresponding nanomolar value, tracer ^125I-PTH(1-34)) and 17.7 nM on PTHR1 (hPTHR1) (tracer ^125I-PTHrP(5-36), read-out: half-maximal inhibitory concentration, corresponding nanomolar value, tracer ^125I-PTHrP(5-36)).

As to `CC[C@H](C)[C@H](NC(=O)[C@H](CCC(=O)O)NC(=O)[C@H](C)NC(=O)[C@@H](NC(=O)[C@H](Cc1c[nH]cn1)NC(=O)[C@@H](NC(=O)[C@H](CCC(=O)O)NC(=O)[C@H](C)NC(=O)[C@@H](NC(=O)[C@H](CC(C)C)NC(=O)[C@H](CCCCN)NC(=O)[C@H](Cc1c[nH]cn1)NC(=O)[C@H](CC(C)C)NC(=O)[C@H](Cc1c[nH]c2ccccc12)NC(=O)[C@H](C)NC(=O)[C@H](CCCNC(=N)N)NC(=O)[C@H](CCCNC(=N)N)NC(=O)[C@H](CCCNC(=N)N)NC(=O)[C@H](C)NC(=O)[C@H](CC(=O)O)NC(=O)[C@H](CCC(N)=O)NC(=O)[C@@H](NC(=O)[C@H](Cc1c[nH]c2ccccc12)NC(=O)[C@H](CCCCN)NC(=O)[C@@H](Cc1c[nH]c2ccccc12)NC(=O)[C@H](CCCNC(=N)N)NC(=O)[C@H](CCC(N)=O)NC(=O)[C@H](Cc1c[nH]cn1)NC(=O)[C@H](CCSC)NC(=O)[C@@H](N)CC(C)C)[C@@H](C)CC)[C@@H](C)CC)[C@@H](C)CC)[C@@H](C)O)C(N)=O` [compound 1990, dW12, W23-LA-PTH(7-36)-1990] (H-LMHQR[dW]KWIQDARRRAWLHKLIAEIHTAEI-NH2; N-terminus assumed), the “inverse agonist properties” value at human PTHR1-T410P is listed as “inverse agonist response”.

Take `CCCC[C@H](NC(=O)[C@@H](N)CC(C)C)C(=O)N[C@@H](Cc1c[nH]cn1)C(=O)N[C@@H](CCC(N)=O)C(=O)N[C@@H](CCCNC(=N)N)C(=O)N[C@H](Cc1c[nH]c2ccccc12)C(=O)N[C@@H](CCCCN)C(=O)N[C@@H](Cc1c[nH]c2ccccc12)C(=O)N[C@H](C(=O)N[C@@H](CCC(N)=O)C(=O)N[C@@H](CC(=O)O)C(=O)N[C@@H](C)C(=O)N[C@@H](CCCNC(=N)N)C(=O)N[C@@H](CCCNC(=N)N)C(=O)N[C@@H](CCCNC(=N)N)C(=O)N[C@@H](C)C(=O)N[C@@H](Cc1c[nH]c2ccccc12)C(=O)N[C@@H](CC(C)C)C(=O)N[C@@H](Cc1c[nH]cn1)C(=O)N[C@@H](CCCCN)C(=O)N[C@@H](CC(C)C)C(=O)N[C@H](C(=O)N[C@@H](C)C(=O)N[C@@H](CCC(=O)O)C(=O)N[C@H](C(=O)N[C@@H](Cc1c[nH]cn1)C(=O)N[C@H](C(=O)N[C@@H](C)C(=O)N[C@@H](CCC(=O)O)C(=O)N[C@H](C(N)=O)[C@@H](C)CC)[C@@H](C)O)[C@@H](C)CC)[C@@H](C)CC)[C@@H](C)CC` [compound 1992, Nle8, dW12, W23-LA-PTH(7-36)-1992] (H-L[Nle]HQR[dW]KWIQDARRRAWLHKLIAEIHTAEI-NH2; N-terminus assumed): the “inverse agonist properties” value at human PTHR1-T410P is “inverse agonist response”.
